# Results: US5298502A, “Method and composition for photodynamic treatment and detection of tumors” (priority 1991, dated 1994)
# Columns and labels:
# [1] = tested on: cotyledons harvested from etiolated cucumber seedlings; assay: Percent Efflux test (Efflux Experiment); type: tissue-based, Cucumis sativus L.; settings: 100 nM concentration
# Procedure: The enzyme-inhibiting agent is preferably one which has a high capacity for disrupting the plasmalemma of plant material. One test for that capacity is the Efflux Experiment described in the article by Halling and Peters in Plant Physiology, 84, 1114-5 (1987).
# The Percent Efflux test employs cotyledons harvested from etiolated cucumber seedlings. In an initial step a mass of cotyledons is treated in the dark with an aqueous buffered solution containing a radiolabelled sugar. The amount of the sugar taken up by the cotyledons is then measured (by counting, as described below). […] The cotyledons, in contact with the aqueous solutions, are then exposed to light for 16 hours, and then separated from the aqueous solutions; the latter are then measured (by counting) to determine their contents of radiolabelled material. The results are expressed as Percent Efflux Which is calculated as follows, where S is the count of radiolabelled material (per cotyledon) taken up by the cotyledons in their initial treatment, ST is the count of radiolabelled material (per cotyledon) in the aqueous solution containing the compound to be tested, after the exposure to light and Sc is the count of radiolabelled material (per cotyledon) in the aqueous solution of the control, after exposure to light: [formula] […]
# mosquito larvae = assay: Insecticidal test against mosquito larvae; settings: in vivo
# cabbage loopers = assay: Insecticidal test against cabbage loopers; settings: in vivo
# HeLa cells [2] = assay: Tetrapyrrole accumulation in treated HeLa cells (Example 1); type: cell-based, human; settings: 100 μM agent, 3 days in the dark
# Procedure: HeLa cells (a human tumor cell line commonly employed for tumor research and obtained from the American Type Culture Collection), in logarithmic growth phase (having been cultured at 37° C. for five days in one-liter Falcon tissue culture flasks), were washed in phosphate buffered saline (PBS). A 0.25% solution of trypsin in PBS (2 mL) was added, and, after several minutes, the cells were gently removed from the flask and placed into 110 mL of a 25 mM solution of Hepes in Minimum Essential Medium (MEM) supplemented with 10% v/v inactivated calf serum, 1.1 mL of a 200 mM solution of glutamine in 0.85% saline solution, and 11,000 units of penicillin/11,000 mcg streptomycin.
# Then, 5.0 mL aliquots of the resulting resuspended cell culture were each placed into a 50 mL Falcon tissue culture flask and (except for the control) mixed with the treating agent. The aliquots were then incubated in the dark at 37° C. for three days. The cells were then removed and extracted under green light in the following manner:
# Cells were removed from the bottom of the flask with the addition of 0.8 mL of a 0.25% solution of trypsin in PBS. After 1 hour of incubation in the dark, cells and medium were removed from the flasks, placed into round bottom centrifuge tubes, and then subjected to two rounds of freeze-thaw conditions to disrupt the cells and allow for extraction.
# Ten mL of basic acetone (90% acetone:10% of 0.1 N NH4 OH) was then added to each tube, and the tubes were centrifuged to remove protein and cell debris. Five mL of water was added to the supernatant, followed by 0.5 mL of a saturated aqueous solution of NaCl. The pH was then adjusted to 6.8 by the dropwise addition of 2 M KH2 PO4. The aqueous acetone extract was then loaded onto a C8 Baker Prep column. The columns were dried and then washed with 2 mL of water. The tetrapyrroles were eluted with 2×1.5 mL volumes of 90/10 CH3 OH/H2 O. Extracts were then quantified on a spectrofluorometer.
# Agent A was supplied as a filter-sterilized 250 mM solution in water, pH 6.5. Agents B, C, D, and E were supplied as 50 mM solutions in acetone. Acetone was also added to the control to provide a concentration of 0.2% v/v therein. The amounts of the agents added to the cell cultures were such as to give the concentrations specified in the Table 1 below. The amounts of the tetrapyrrole protoporphyrin IX ("Proto IX") produced are shown in that Table.
# HeLa cells [3] = assay: Growth inhibition and Proto IX accumulation in HeLa cells (Example 2); type: cell-based, human; settings: 100 μM agent
# Procedure: HeLa cells, in logarithmic growth phase having been cultured for 6 days in six one-liter Falcon tissue culture flasks at 37° C.), were washed in phosphate buffered saline (PBS). A 0.25% solution of trypsin in PBS was added, and, after several minutes, the cells were gently removed and placed into 110 mL of a 25 mM solution of Hepes in Minimum Essential Medium (MEM), supplemented with 10% v/v inactivated calf serum, 1.1 mL of a 200 mM solution of glutamine in 0.85% saline solution, and 11,000 units of penicillin/11,000 mcg streptomycin.
# Aliquots (5.0 mL each) of the resuspended cell culture were placed into 50 mL Falcon tissue culture flasks, with or without herbicide, and incubated in the dark at 37° C. for 4 days, the herbicide being added in dilute acetone solution as in Example 1. Acetone was also added to the controls to provide a concentration of acetone of 0.2% v/v therein. The amount of herbicide was such as to provide the concentrations specified in Table 2 below.
# Extraction: The media from each of the flasks were placed in glass round bottom tubes, while the cells adhering to the bottom of the flasks were loosened by the addition of 0.5 mL of a 0.25% solution of trypsin in PBS, and after several minutes at 37° C., then washed from the flasks and recombined with their media. Aliquots of 100 μL were then removed from each cell suspension to determine cell density. The remaining 5.4 mL of cell suspension was then sonified for 30 minutes to disrupt the cells.
# Ten mL of basic acetone (90% acetone:10% 0.1 N NH4 OH) was then added to each tube, and the tubes were centrifuged to remove protein and cell debris. Five mL of water was added to the supernatant, followed by 0.5 mL of a saturated aqueous solution of NaCl. The pH was then adjusted to 6.8 by the dropwise addition of 2 M KH2 PO4. The aqueous acetone extract was then loaded onto a C8 Baker Prep column. The columns were dried and then washed with 2 mL of water. The tetrapyrroles were eluted with 3 mL of 90/10 CH3 OH/H2 O. As in Example 1, all these extraction procedures were carried out substantially entirely under non-protoporphrin IX-exciting light (e.g. green light) or in the dark (e.g. in opaque covered containers). The fluorescence of the extracts was then determined on a SPEX spectrofluorometer. Protoporphyrin IX ("Proto IX") accumulation was quantified utilizing predetermined extinction coefficients.
# [4] = tested on: enzymatic conversion of Proto IX to magnesium Proto IX; assay: Conversion of Proto IX to magnesium Proto IX in chloroplast suspension; type: biochemical, Cucumber (Cucumis sativus L.); settings: 10 μm AFM, in the presence of ATP
# [5] = target: Protoporphyrinogen Oxidase; assay: Protoporphyrinogen oxidase assay using isolated enzyme; type: biochemical, Peas (Pisum sativum var. Little Marvel); settings: isolated pea etioplast enzyme
# Procedure: Plant Material and Homogenization: Peas (Pisum sativum var. Little Marvel) germinated at 20° C. in a dark growth chamber ten days. Plants were illuminated for one hour per day, which allowed for significant leaf expansion while minimizing chlorophyll synthesis. Leaves were pale yellow-green in color.
# The leaves were then homogenized in 500 mL of grinding media consisting of 0.5 M mannitol, 10 mM HEPES, 20 mM TES, 1 mM EDTA, 1 mM MgCl2, 5 mM cysteine, and 0.2 BSA, pH 7.7. The brei was then passed through four layers of cheesecloth, then through a 43-micron nylon mesh. The hemogenate was then centrifuged at 4000 g for 3 minutes. The resultant pellet was utilized for plastid isolation.
# Etioplast Isolation and Purification: The pellet (plastid fraction) was resuspended in 40 mL of assay media (grinding media minus cysteine and containing 1 mM DTE and 1% ESA) and centrifuged at 150 g to remove cellular debris. The resultant supernatant was centrifuged at 4000 g, and the resuspended pellets were overlaid on 40% Percoll. […]
# Protein content was determined utilizing the BioRad method. […]
# Purification Utilizing DEAE Chromatography: A 0.75 mL volume of plastid-solubilized-enzyme preparation was loaded onto a Waters Protein-Pak DEAE-5PW column (8 mm×7.5 cm) equilibrated with Elution Buffer. […] Peaks were detected using a Waters 494 UV detector at 260 nm, sensitivity:1AU. […]
# human erythrocytes = settings: introduced into human erythrocytes; cited from earlier work
# murine leukemia cells = settings: cited from earlier work
# tumors = settings: injected into animals; cited from earlier work
structure (smiles),measurement,setting,value
"C#CCOc1cc(-n2nc(C)n(C(F)F)c2=O)c(F)cc1Cl [1-(4-chloro-2-fluoro-5-propargyloxyphenyl) -3-methyl-4-difluoromethyl-Δ^2-1,2,4-triazolin-5-one]",total efflux,[1],over 90%
C#CCOc1cc(-n2nc(C)n(C(F)F)c2=O)c(F)cc1Cl [Agent 7f],activity against mosquito larvae,mosquito larvae,active
same,activity against cabbage loopers,cabbage loopers,active
"COC(=O)c1cc(Oc2ccc(C(F)(F)F)cc2Cl)ccc1[N+](=O)[O-] [Agent B, Acifluorfen-methyl]",Amount of Proto IX,HeLa cells [2],1.3 pmol
same,Fluorescence Emission cps 400/630,HeLa cells [2],12921 cps
same,Amount of Proto IX,HeLa cells [3]; average amount per 10^6 cells,5.20 pmol
same,inhibition at 100 µM,"HeLa cells [3]; Homo sapiens, HeLa, 96 h, 4 days in the dark",99%
same,effect on enzymatic conversion of Proto IX to magnesium Proto IX,[4],no inhibiting effect
same,pI50 (negative log of the I50 Molarity),[5],7.1
same,IC50,[5]; read-out: I50,80 nM
same,activity against mosquito larvae,mosquito larvae,active
same,activity against cabbage loopers,cabbage loopers,active
"CCOC(=O)C(C)OC(=O)c1cc(Oc2ccc(C(F)(F)F)cc2Cl)ccc1[N+](=O)[O-] (stereo not shown) [lactophen, 1-(carboethoxy)ethyl 5-(2-chloro-4-trifluoromethylphenoxy) -2-nitrobenzoate, reference compound]",total efflux,[1],over 90%
C=CC1=C(C)c2cc3[nH]c(cc4nc(cc5[nH]c(cc1n2)c(C)c5CCC(=O)O)C(CCC(=O)O)=C4C)c(C)c3C=C [protoporphyrin],photosensitizing effect,human erythrocytes,marked photosensitizing effect
same,photosensitizing potency,murine leukemia cells,most potent photosensitizing agent of those tested
same,protoporphyrin in the tumors after injection,tumors,no detectable protoporphyrin in the tumors
